This test has as its target cGMP-specific 3',5'-cyclic phosphodiesterase PDE V (Sus scrofa). Kind of test: Inhibitory potency against pig aortic PDE V.

One may read the IC50 as the concentration needed to halve the response being measured. A high value points to weaker potency in that assay. For the molecule `COC(=O)c1ccccc1NC(=O)c1ccc(OC)c(OC2CCCC2)c1` [2-(3-Cyclopentyloxy-4-methoxy-benzoylamino)-benzoic acid methyl ester], half-maximal inhibition (IC50) required 5.5 µM.
`COc1ccc(C(=O)Nc2ccccc2F)cc1OC1CCCC1` [3-(cyclopentyloxy)-N-(2-fluorophenyl)-4-methoxybenzamide] had an IC50 above 1000 µM.
The molecule `COc1ccc(C(=O)Nc2ccccc2SC)cc1OC1CCCC1` [3-Cyclopentyloxy-4-methoxy-N-(2-methylsulfanyl-phenyl)-benzamide] had an IC50 above 200 µM.
Turning to `COc1ccc(C(=O)Nc2ccccc2C(F)(F)F)cc1OC1CCCC1` [3-Cyclopentyloxy-4-methoxy-N-(2-trifluoromethyl-phenyl)-benzamide], the IC50 is above 1000 µM.
Next, `COc1ccc(C(=O)Nc2ccccc2C)cc1OC1CCCC1` [3-Cyclopentyloxy-4-methoxy-N-o-tolyl-benzamide]: above 1000 µM.
Molecule `COc1ccc(C(=O)Nc2ccc(C)cc2)cc1OC1CCCC1` [3-Cyclopentyloxy-4-methoxy-N-p-tolyl-benzamide] yielded an IC50 above 200 µM.
Molecule `COc1ccc(C(=O)Nc2cccc(Cl)c2Cl)cc1OC1CCCC1` [3-Cyclopentyloxy-N-(2,3-dichloro-phenyl)-4-methoxy-benzamide] displayed an IC50 above 200 µM.
For the molecule `COc1ccc(C(=O)Nc2c(F)cccc2F)cc1OC1CCCC1` [3-Cyclopentyloxy-N-(2,6-difluoro-phenyl)-4-methoxy-benzamide], the IC50 was above 1000 µM.
Consider `COc1ccc(C(=O)Nc2ccccc2O)cc1OC1CCCC1` [3-Cyclopentyloxy-N-(2-hydroxy-phenyl)-4-methoxy-benzamide], for which the IC50 is 175 µM.
For the molecule `COc1ccc(C(=O)Nc2ccc(F)cc2)cc1OC1CCCC1` [3-Cyclopentyloxy-N-(4-fluoro-phenyl)-4-methoxy-benzamide], the IC50 is above 1000 µM.
Regarding `COc1ccc(C(=O)Nc2ccccc2C(=O)c2ccccc2)cc1OC1CCCC1` [N-(2-Benzoyl-phenyl)-3-cyclopentyloxy-4-methoxy-benzamide], half-maximal inhibition (IC50) required 2.5 µM.
In the case of `COc1ccc(C(=O)Nc2ccccc2Br)cc1OC1CCCC1` [N-(2-Bromo-phenyl)-3-cyclopentyloxy-4-methoxy-benzamide], the IC50 was above 1000 µM.
`COc1ccc(C(=O)Nc2c(F)cccc2Cl)cc1OC1CCCC1` [N-(2-Chloro-6-fluoro-phenyl)-3-cyclopentyloxy-4-methoxy-benzamide] gave an IC50 above 1000 µM.
The molecule `COc1ccc(C(=O)Nc2c(C)cccc2Cl)cc1OC1CCCC1` [N-(2-Chloro-6-methyl-phenyl)-3-cyclopentyloxy-4-methoxy-benzamide] showed an IC50 above 1000 µM.
For the molecule `COc1ccc(C(=O)Nc2ccccc2Cl)cc1OC1CCCC1` [N-(2-Chloro-phenyl)-3-cyclopentyloxy-4-methoxy-benzamide], the IC50 is above 200 µM.
`COc1ccc(C(=O)Nc2cccc(Cl)c2)cc1OC1CCCC1` [N-(3-Chloro-phenyl)-3-cyclopentyloxy-4-methoxy-benzamide] came in with an IC50 above 40 µM.
For `COc1ccc(C(=O)Nc2ccc(Cl)cc2)cc1OC1CCCC1` [N-(4-Chloro-phenyl)-3-cyclopentyloxy-4-methoxy-benzamide], the IC50 was above 1000 µM.
